# Tests used:
# [1] = test system: adipocytes from Lgals12^+/+ and Lgals12^−/− mice; assay: Lipolysis assay in primary adipocytes from Lgals12+/+ and Lgals12−/− mice (glycerol release); format: cell-based, mouse; conditions: for lipolysis (glycerol release): 1 h, 37° C.; for cAMP/dbcAMP-stimulated lipolysis: in the presence of adenylyl cyclase inhibitor SQ 22536, FIG. 9G
# Description: (A) Adipocytes from the epididymal fat depots of Lgals12^+/+ and Lgals12^-/- mice were incubated with indicated concentrations of isoproterenol before being separated into cytosol and fat cake. Lipolytic proteins in each fraction were analyzed by Western blotting with indicated antibodies. (B) Quantification of lipid droplet (LD)-associated p-HSL and HSL by densitometry of Western blots (n=3 for each genotype). […] (D) Quantification of LD-associated ATGL by densitometry of Western blots (n=3 for each genotype). […] Asterisks denote statistical significance (p<0.05). Results are representative of three experiments. FIGS. 10A-C illustrate (A) Adipocytes from Lgals12^+/+ and -/- mice (n=3) were incubated with 1 U/ml ADA and increasing concentrations of PIA for 1 h at 37° C. and glycerol release was measured. Results were expressed as both absolute values and as % of glycerol release in the absence of PIA. (B) Adipocytes from Lgals12+/+ and Lgals12^-/- mice (n=3 each) were incubated with or without 10 μM cilostamide (Cilo) or 25 μM rolipram (Roli), individually or in combination, for 2 h at 37° C. Lipolysis was determined by measuring glycerol release. (C) Insulin suppression of lipolysis in adipocytes stimulated with 20 nM isoproterenol (% of maximal release in the absence of insulin). Asterisks denote statistical significance (p<0.05). Similar results were obtained in three experiments. Adipocytes were isolated from gonadal fat depots in Krebs-Ringer HEPES (KRH) buffer by collagenase digestion and floatation ([…] Lipid Res 47:1859-1864). After the final wash, cell density and triglyceride content of the adipocyte suspension were determined as described (Fine […] (1997) Int J Obes Relat Metab Disord 21:764-768.). We monitored lipolysis in adipocytes isolated from random-fed Lgals12^+/+ and Lgals12^-/- mice on regular diet, by measuring fatty acid and glycerol release, as described ([…] Lipid Res 47:1859-1864), with minor modifications. Briefly, 2.5×10^5 cells were incubated in 0.3 ml KRH/3% FAA-free BSA (for basal lipolysis), or KRH/3% FAA-free BSA containing indicated concentrations of lipolysis stimulators or inhibitors (Sigma) for 0-2 h at 37° C. with shaking at 150 rpm. At the end of the incubation, glycerol and NEFA released into the infranatant was determined with the Free Glycerol Reagent (Sigma) and the Nonesterified Fatty Acids Kit ([…]), respectively.
# galectin-12 [2] = molecular target: T1, galectin-12 (Mus musculus, UniProt Q91VD1); assay: Association of galectin-12 with lipid droplets purified from mouse adipocyte homogenates; conditions: lactose 25 mM present during lipid droplet purification; FIG. 5B
# T1 construct: from tissue; host or cells: primary mouse adipocytes from epididymal fat depot
# T1 sequence (Q91VD1 1-314): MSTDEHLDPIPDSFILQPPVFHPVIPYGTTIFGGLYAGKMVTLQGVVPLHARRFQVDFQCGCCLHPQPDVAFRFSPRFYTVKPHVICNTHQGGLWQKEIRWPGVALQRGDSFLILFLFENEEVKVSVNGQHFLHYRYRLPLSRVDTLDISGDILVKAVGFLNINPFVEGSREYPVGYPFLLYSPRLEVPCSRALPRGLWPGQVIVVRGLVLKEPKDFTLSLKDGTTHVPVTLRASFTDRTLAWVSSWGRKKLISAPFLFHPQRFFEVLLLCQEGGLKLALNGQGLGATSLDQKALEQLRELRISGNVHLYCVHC
# Description: (§1) FIGS. 5A-B illustrate association of galectin-12 with lipid droplets is not inhibited by lactose. (A) Mouse adipocytes from epididymal fat depot were lyzed and the lysates were incubated with fetuin-agarose, in the absence (−) or presence (+) of 25 mM lactose. Bound proteins were eluted with SDS-sample buffer and galectin-12 was detected by Western blotting. (B) Lipd droplets were purified from mouse adipocyte homogenates in the absence (−) or presence (+) of 25 mM lactose. Galectin-12 was detected as in (A).
# (§2) To test whether galectin-12 association with lipid droplets is glycan-dependent, we also purified lipid droplets in the presence of lactose.
# galectin-12 [3] = molecular target: T1, galectin-12; assay: Binding of galectin-12 from mouse adipocyte lysates to fetuin-agarose (Western blotting); conditions: lactose 25 mM; mouse epididymal adipocyte lysates; FIG. 5A
# Description: as §1, §2
compound,measurement,setting,value
"CC(C)Cn1c(=O)n(C)c(=O)c2[nH]cnc21 [IBMX, 3-isobutyl-1-methylxanthine]",lipolysis (glycerol release),"[1]; 0.1 mM IBMX, both Lgals12+/+ and Lgals12−/− adipocytes, FIG. 9F",greatly enhanced
OC[C@H]1O[C@@H](O[C@H]2[C@H](O)[C@@H](O)C(O)O[C@@H]2CO)[C@H](O)[C@@H](O)[C@H]1O (stereo partly shown) [Lactose],galectin-12 association with lipid droplets,galectin-12 [2],did not affect
same,binding of galectin-12 to fetuin-agarose,galectin-12 [3],completely inhibited
"CCCC(=O)Nc1ncnc2c1ncn2[C@@H]1O[C@@H]2COP(=O)(O)O[C@H]2[C@H]1OC(=O)CCC [dbcAMP, dibutyryl cAMP]",cAMP/dbcAMP-stimulated lipolysis,[1],induced comparable lipolysis in adipocytes of the two genotypes
insulin,insulin suppression of lipolysis,"[1]; Lgals12−/− adipocytes stimulated with 20 nM isoproterenol, FIG. 10C",remained sensitive
"CC(Cc1ccccc1)Nc1ncnc2c1ncn2[C@@H]1O[C@H](CO)[C@@H](O)[C@H]1O (single isomer, unassigned; (-)) [PIA, (−)-N6-(2-Phenylisopropyl)adenosine]",lipolysis (glycerol release),"[1]; increasing concentrations of PIA with 1 U/ml ADA, FIG. 10A",suppressed lipolysis in both genotypes with similar efficiencies
"Nc1ncnc2c1ncn2[C@@H]1O[C@@H]2COP(=O)(O)O[C@H]2[C@H]1O [cAMP, cyclic adenosine monophosphate]",cAMP/dbcAMP-stimulated lipolysis,[1],stimulated greater lipolysis in Lgals12^−/− adipocytes than in Lgals12^+/+ adipocytes
